Test results published in patent US20250000907A1, “ENGINEERED IMMUNE CELLS WITH REDUCED SIRT6 EXPRESSION” (H. LEE MOFFITT CANCER CENTER AND RESEARCH INSTITUTE, INC., priority 2021, published 2025).

Assays:
OT-II and Pmel T cells = assay: CFSE proliferation assay; assay type: cell-based, mouse; conditions: upon antigenic stimulation ex vivo, 3 days, FIG. 7A
Description: Pmel cells and OT-II cells were first labelled with 5 μM of CellTrace™ carboxyl fluorescein succinimidyl ester (CFSE, Thermo Fisher Scientific) for 30 min at room temperature (RT) and then stimulated with gp100 or remained non-stimulated with and without Sirt6 inhibitor (OSS) for 3 days.

[1] = system: Pmel T cells stimulated with gp100; assay: Intracellular granzyme B staining by flow cytometry; assay type: cell-based, mouse; conditions: activated Pmel T cells, OSS vs. DMSO, FIG. 7B
Description: For intracellular cytokine staining, cells were firstly stimulated with phorbol 12-myristate 13-acetate (PMA, 10 ng/ml, Sigma) and ionomycin (1 μM/ml, Sigma) for 1 hour followed by GolgiPlug™ treatment (1% c, BD Biosciences) for 6 h and then stained with IFN-γ (BV711, BD Biosciences) and Granzyme B (Alexa647, Biolegend). Cells were acquired on a BD FACSymphony™ A5 and LSR II (Becton Dickinson), and data were analyzed with FlowJo software Version 10.0 software.

activated CD3+ T cells [2] = assay: RT-PCR mRNA levels in activated T cells; assay type: cell-based, mouse
From the text: Total RNA was extracted using the RNeasy Mini Kit (Qiagen; cat. #74106) and reverse transcribed using iScript™ (Biorad). cDNAs were amplified using the “SsoAdvanced™ Universal SYBR® Green Supermix” kit (Biorad) in the CFX Connect™ Real-Time System (Biorad). Sense and antisense primers used were for mouse Sirt6, GLUT1, HK, PFK, LDH, GLS and ASCT2 (primers designed by Biorad and provided as a mixture, PrimePCR™ SYBR® Green Assay).

activated CD3+ T cells [3] = assay: Seahorse extracellular flux analysis (ECAR/OCR) of activated CD3+ T cells; assay type: cell-based, mouse
Description: Spleens and/or lymph nodes (LN) were collected from C57BL/6J, Pmel and OT-II mice and were processed into single-cell suspensions. CD3+, CD4+ and CD8+ T cells were negatively enriched using Mouse Pan T cell, CD4^+ T cell and CD8^+ T Cell Isolation Kits™, respectively according to the manufacturer's instructions. The purity of the isolated cells was confirmed by flow cytometry (>95%). Purified T cells were cultured in complete RPMI 1640 medium (Thermo Fisher Scientific) supplemented with 10% (vol/vol) fetal bovine serum (FBS, Biowest) and 1% (vol/vol) penicillin/streptomycin (P/S, Thomas Scientific Inc.). T cells were activated with plate-bound anti-CD3 antibody (5 μg/ml, 145-2C11, BioXCell) for the indicated time periods. […]
Extracellular acidification rate (ECAR) and oxygen consumption rate (OCR) were measured using the Seahorse XF analyzer (Agilent technologies). […] For GST, ECAR and OCR were measured under basal conditions and in response to 10 mM glucose, 1 μM oligomycin and 50 mM 2-DG successively to calculate basal glycolytic rate, glycolytic capacity (in response to oligomycin), and glycolytic reserve (glycolytic capacity-basal rate). […] Results were normalized to total protein quantified using Pierce™ BCA Protein Assay Kit (Thermo Fisher Scientific).

[4] = system: stimulated CD8+ T cells from WT vs. Sirt2−/− Pmel mice; assay: Seahorse ECAR of stimulated CD8+ T cells from WT vs. Sirt2−/− Pmel mice; assay type: cell-based, mouse; conditions: FIG. 3B
Description: FIG. 3: Sirtuins in the immune system. A, WB of Sirt1-3,5-7 expression in activated CD3+ T cells from WT vs. Sirt2−/− mice. ECAR measured by Seahorse analyzer (B) and IFN-γ ELISPOT assay (C) in stimulated CD8+ T cells from WT vs. Sirt2−/− Pmel mice treated with vehicle (Ctl), or Sirt6 inhibitor (Sirt6i). *P<0.05, **P<0.01, ****P<0.0001.
Extracellular acidification rate (ECAR) and oxygen consumption rate (OCR) were measured using the Seahorse XF analyzer (Agilent technologies). Glycolysis Stress Test (GST) and mitochondrial stress test (MST) were purchased from Agilent technologies and performed according to the kit manufacturer's instructions. […] For GST, ECAR and OCR were measured under basal conditions and in response to 10 mM glucose, 1 μM oligomycin and 50 mM 2-DG successively to calculate basal glycolytic rate, glycolytic capacity (in response to oligomycin), and glycolytic reserve (glycolytic capacity-basal rate). For MST, OCR and ECAR were measured under basal conditions and in response to sequential injections of 1 μM oligomycin, 1 μM FCCP (Carbonyl cyanide 4-trifluoromethoxyphenylhydrazone) and 0.5 μM rotenone/antimycin A to calculate basal respiration rates (baseline OCR-rotenone/antimycin A OCR), maximal respiration (FCCP OCR-rotenone/antimycin A OCR), and oxidative reserve (maximum respiration rate-basal respiration rate). […]

B16F10 cells = assay: LDH release cytotoxic assay of Pmel T cells against B16F10 cells; assay type: cell-based, mouse; conditions: Pmel T cells ex vivo, OSS vs. DMSO, FIG. 7D
Description: Evaluation of functional cytotoxic activity was performed using Pierce™ LDH Cytotoxicity Assay Kit (Thermo Fisher Scientific) according to the manufacturer's protocol. B16F10 cells or human NSCLC autologous tumor cells were used as target cells. Mouse CD8+ enriched T cells from gp100-stimulated Pmel splenocytes or human NSCLC TILs were used as effector cells. Target tumor cells were co-cultured with effector cells in 96-well round-bottom microplates at the indicated effector:target ratios with and without Sirt6 inhibitor. After 6 hr, the percentage of specific LDH release was calculated according to the following formula: % cell lysis=(experimental value−effector cells spontaneous release−target cells spontaneous release)×100/(target cells maximum release−target cells spontaneous release), where “experimental” corresponds to the experimental signal value, “effector spontaneous” to spontaneous release of LDH from effector cells alone, “target spontaneous” to spontaneous release of LDH from target cells alone and “maximum release” to the maximum release of LDH from target cells in medium containing 1% Triton X-100.

[5] = system: human TILs from NSCLC patient tumor samples; assay: IFN-γ ELISPOT assay of human NSCLC TILs; assay type: cell-based; conditions: TILs from 6 NSCLC patients, OSS vs. DMSO
Description: hTILs were maintained in RPMI 1640 Medium, supplemented with 10% human AB serum (Valley Biomedical, Inc.), 1 mM Hepes (Sigma-Aldrich), 1% P/S (Thomas Scientific Inc), 50 μg/ml Gentamicin (ThermoFisher Scientific), 50μM β-mercaptoethanol (ThermoFisher Scientific) and 6000 U/ml of recombinant human IL-2 (Peprotech). For metabolic and functional assays, hTILs were cultured in completed RPMI medium, IL-2 free, on plate-bound anti-CD3 antibody (5 μg/ml; OKT-3, BioXCell) in the presence of vehicle or OSS (Selleck Chemicals) at the indicated concentrations.
The number of IFN-γ producing cells was evaluated in an ELISPOT assay. Briefly, mouse TILs were plated at 1×10^5 cells and co-cultured with 1×10^3 irradiated B16F10 tumor cells (50 Gray) in the presence of the indicated concentrations of OSS, in a 96-well nitrocellulose flat-bottomed plate (ELISPOT plate, Millipore) pre-coated with an anti-mouse IFN-γ antibody (AN-18, Mabtech, Inc.) and incubated for 48 hr at 37° C. […] After washing steps and successive biotinylated anti-IFN-γ antibody (R4-6A2, Mabtech, Inc.) and Streptavidin-HRP (BD Bioscience) labeling, spots were detected using AEC Substrate Kit (BD Biosciences) and counted using an AID ELISPOT Reader System (Autoimmun Diagnostika GmbH).

[6] = activated CD3+ T cells, FIG. 8K

In the case of `O=C(Nc1ccc(O)c(C(=O)O)c1)c1cccc(NC(=O)c2ccco2)c1` [OSS_128167], the “proliferation (CFSE dilution)” value (OT-II and Pmel T cells) is reported as “increased”, the “granzyme B expression” value [1] is reported as “increases” and the “mRNA expression levels of glutaminase (GLS)” value (activated CD3+ T cells [2]; [6]) is reported as “increased”. For the same compound, the “mRNA expression levels of glutamine transporter (ASCT2)” value (activated CD3+ T cells [2]; [6]) was “increased”, the “mRNA expression levels of glucose transporter (Glut1)” value (activated CD3+ T cells [2]; activated T cells, FIG. 8G) was “increased” and the “mRNA expression levels of hexokinase (HK1)” value (activated CD3+ T cells [2]; activated T cells, FIG. 8G) was “increased”. For the same compound, the “mRNA expression levels of lactate dehydrogenase A (LDHA)” value (activated CD3+ T cells [2]; activated T cells, FIG. 8G) was “increased”, the “mRNA expression levels of phosphofructokinase P (PFKP)” value (activated CD3+ T cells [2]; activated T cells, FIG. 8G) was “increased” and the “glycolytic flux (ECAR)” value (activated CD3+ T cells [3]; CD3-stimulated CD3+ T cells, OSS 25 μM or 50 μM vs. vehicle (DMSO), FIG. 6A) was “profoundly increased”. The “SRC in response to the mitochondrial decoupling agent (FCCP) (OCR)” value (activated CD3+ T cells [3]; activated T cells, pharmacologic inhibition, FIG. 6G) was “increase”, the “effect on metabolic activity (ECAR) with Sirt2 deficiency” value ([4]; Sirt2−/− Pmel CD8+ T cells) was “potentiated” and the “metabolic activity of T cells (ECAR)” value ([4]; activated T cells, Sirt6i vs. vehicle) was “increases”. For the same compound, the “cytotoxic activity against B16F10 cell challenge” value (B16F10 cells) was “superior cytotoxic activity” and the IFN-γ production [5] was “increased”.
